Several values for one entry are separate records, joined by “and”; a condition that tells them apart may be missing. Identical values can stand only once. Marks after values point to notes of the source that are not given here.
Tests used:
[1] = Recovery of parent drug and glucuronide metabolites in urine, bile and feces of BDC and intact dogs; type: in vivo, beagle dog; conditions: for % dose in feces, Parent / % dose in bile, Parent / % dose in urine, Parent / renal excretion of parent drug: 0.5 mg/kg IV; for % dose in feces, Parent / % dose in bile, Parent / % dose in urine, Parent: over 48 hours; for % dose in bile, Parent: 0.5 mg/kg; for renal excretion of parent drug: dog (BDC and intact); for Biliary excretion % of glucuronide / Urinary excretion % of glucuronide: dog; for Biliary excretion % of glucuronide: BDC; for Urinary excretion % of glucuronide: BDC and/or intact
Description: Canagliflozin and DPTQ, both at 0.5 mg/kg, were administered intravenously in 25 mmol/L phosphate buffer (pH 8) containing 10% dimethylacetamide (v/v), 15% ethanol (v/v) via a cephalic vein. Total volume administered was 1 mL/kg. Dogs were housed in stainless steel metabolic cages during the study. Serial blood samples were collected from the jugular vein at 0.08, 0.25, 0.5, 1, 2, 4, 8, 12, 24, 36 and 48‐hours post‐dose with collection tubes containing anticoagulant K3‐EDTA. Plasma was obtained by centrifugation at 1600g for 10 minutes. Cumulative urine samples were collected between 0‐12, 12‐24, 24‐36 and 36‐48 hours and feces were collected between 0‐24 and 24‐48 hours in both intact and BDC dogs. Bile samples were collected between 0‐12, 12‐24, 24‐36, 36‐48 hours in BDC dogs. The weights of all samples except blood and plasma were recorded. All the samples were stored at −70°C until analysis by liquid chromatography tandem‐mass spectrometry (LC‐MS/MS) was performed.
Aliquots of plasma, urine, bile or feces homogenate (50 µL) were incubated with equal volume of 0.2 mol/L sodium acetate buffer (pH 5.0), and 15 μL of β‐glucuronidase (>85 000 units/mL) in a 37°C water bath overnight. The samples were extracted for LC‐MS/MS after the hydrolysis was performed. […] The concentration of O‐glucuronides was determined by subtracting the concentration from the aliquot without treatment of β‐glucuronidase from the one with enzyme treatment.
Canagliflozin and DPTQ in plasma, bile, urine and feces were quantified using LC‐MS/MS. All samples plasma, urine and bile) were mixed with an organic internal standard solution essentially described previously,15 to precipitate protein and centrifuged, and the resulting supernatants were analyzed using AB Sciex API 4000 quadrupole mass spectrometer (Applied Biosystems, Foster City, CA) equipped with a TurboIonSpray interface. The feces samples were homogenized in MeOH:H2O (1:1) and shaken vigorously to obtain slurry. The homogenates then went through the sample extraction along with other matrices. The blank plasma, urine, bile and feces was spiked with internal standard for calibration curve. The pumps were Shimadzu LC‐10AD units with a SCL‐10A controller (Kyoto, Japan), and a Z‐215 liquid handler (Gilson, Middleton, WI) was used as the autosampler. All compounds were chromatographically separated using a Betasil javelin C18 20 × 2.1‐mm 5‐μm HPLC column (Thermo Fisher Scientific, Waltham, MA). The mobile phase consisted of solvent A (1 mmol/L ammonium bicarbonate in water) and solvent B (1 mmol/L ammonium bicarbonate in methanol). Drugs and metabolites were detected in positive ion mode, using selected ion mode: canagliflozin 462.2 → 191.1 m/z, DPTQ 436.2 → 158.9 m/z, and DPTQ‐O‐glucuronide 612.2 → 418.1.

[2] = system: cryopreserved human hepatocytes; assay: Hepatocyte intrinsic clearance with and without ABT (human); type: in vitro ADME; conditions: for % of inhibition by ABT: human hepatocytes, inhibition of Clint by 1 mmol/L ABT (fm by P450); for Hepatic fm by UGT: human, in hepatocytes
Description: The intrinsic clearance was determined in cryopreserved dog and human hepatocytes essentially as described previously.4 The assay incubation contained 0.3 µmol/L compound and hepatocytes at a concentration of 10^6 cells/mL, with and without 30 minutes pre‐incubation of 1 mmol/L ABT. Intrinsic clearance measurement was initiated by the addition of compound and the incubation quenched at 0.6, 15, 30, 60 and 90 minutes for DPTQ, and at 0.6, 15, 30, 60, 120 and 240 minutes by addition of acetonitrile with 0.1% formic acid. Samples were centrifuged at 3500 g for 10 minutes and the supernatant was analyzed to quantify parent compound loss and the intrinsic clearance values (μL/min/10^6 cells) were calculated using following equation for incubations with and without ABT. CLint=-kdep×incubation volume/10^6cells
In which the depletion rate constant (k dep) is the slope determined using linear regression from the log transformed percentage remaining on the y‐axis vs time on the x‐axis (min^− ^1). The fraction of metabolism (fm) by P450 was determined by the measurement of the percentage of inhibition of Clint by ABT.

[3] = system: cryopreserved dog hepatocytes; assay: Hepatocyte metabolite profile with and without ABT (dog); type: in vitro ADME; conditions: 4 h, 2 μmol/L
Description: Cryopreserved dog and human hepatocytes were obtained from BioreclamationIVT (Baltimore, MD). […] A stock solution of canagliflozin and DTPQ was added to medium to give a final incubation concentration of 2 μmol/L. The incubations including the media and cells were quenched after 4 hours with an equal volume of acetonitrile containing 200 ng/mL niflumic acid as internal standard. Samples were centrifuged at 3500 g for 10 minutes and the supernatant was analyzed by liquid chromatography coupled to a diode array UV detection and mass spectrometry system consisting of the Acquity ultra‐performance liquid chromatography column, Synapt G2‐S mass spectrometer, and an ultra‐performance liquid chromatography photodiode array detector (Waters, Milford, MA). The chromatographic separation of metabolites was achieved on a Waters 1.7‐μm Acquity BEH C18 (100 × 2.1 mm) column maintained at 60°C. The mobile phase consisted of solvent A (0.2% formic acid in water for DPTQ and 10 mmol/L ammonium acetate in water for canagliflozin) and solvent B (100% acetonitrile). The samples were eluted, at a flow rate of 0.5 mL/min with a gradient for 5 minutes. The LC/MS full scan data were processed by Metabolynx (Waters, Milford, MA) to identify metabolites. Product ion spectra were acquired to confirm the metabolites. The mass spectrometer was operated in positive ion mode with an electrospray ionization source. The parameters for the chamber were: capillary 1.0 kV, sample cone 50 V, source temperature 120°C, desolvation 500°C, and collision energy 25 V. The peak areas for parent, metabolite and internal standard were integrated to allow for comparison between conditions.

[4] = target: T1, human wild‐type P‐gp (Homo sapiens, UniProt P08183); assay: Bi‐directional transport across MDCKII cells expressing human P‐gp; type: in vitro ADME; set-up: key to Pgp substrate: S, substrate; NS, non‐substrate; conditions: for PappA‐B / PappB‐A: 5 µmol/L compound; for P‐gp substrate: P‐gp‐transfected MDCKII cells; for P‐gp substrate / MDCK permeability (passive membrane permeability): in words; for Pgp substrate: classified from net efflux ratio (NER >3.0 = substrate); for Net efflux ratio: uninhibited ratio divided by inhibited ratio, NER >3.0 = P‐gp substrate
T1 construct: host or cells: MDCKII
Description: MDCKII cells stably expressing human wild‐type P‐gp were obtained from the Netherlands Cancer Institute Amsterdam, The Netherlands). MDCK cells were maintained and the assay was conducted essentially as described previously.12, 13 Transport was measured in both directions across uninhibited and inhibited cell monolayers using a substrate concentration of 5 μmol/L diluted from a 10 mmol/L DMSO stock solution final DMSO concentration of 0.05%) and a single 60‐min time interval.

[5] = MDR1‐MDCKII_inhibitor (2.5 µmol/L P‐gp inhibitor LSN335984)

T1 sequence (P08183 whole entry): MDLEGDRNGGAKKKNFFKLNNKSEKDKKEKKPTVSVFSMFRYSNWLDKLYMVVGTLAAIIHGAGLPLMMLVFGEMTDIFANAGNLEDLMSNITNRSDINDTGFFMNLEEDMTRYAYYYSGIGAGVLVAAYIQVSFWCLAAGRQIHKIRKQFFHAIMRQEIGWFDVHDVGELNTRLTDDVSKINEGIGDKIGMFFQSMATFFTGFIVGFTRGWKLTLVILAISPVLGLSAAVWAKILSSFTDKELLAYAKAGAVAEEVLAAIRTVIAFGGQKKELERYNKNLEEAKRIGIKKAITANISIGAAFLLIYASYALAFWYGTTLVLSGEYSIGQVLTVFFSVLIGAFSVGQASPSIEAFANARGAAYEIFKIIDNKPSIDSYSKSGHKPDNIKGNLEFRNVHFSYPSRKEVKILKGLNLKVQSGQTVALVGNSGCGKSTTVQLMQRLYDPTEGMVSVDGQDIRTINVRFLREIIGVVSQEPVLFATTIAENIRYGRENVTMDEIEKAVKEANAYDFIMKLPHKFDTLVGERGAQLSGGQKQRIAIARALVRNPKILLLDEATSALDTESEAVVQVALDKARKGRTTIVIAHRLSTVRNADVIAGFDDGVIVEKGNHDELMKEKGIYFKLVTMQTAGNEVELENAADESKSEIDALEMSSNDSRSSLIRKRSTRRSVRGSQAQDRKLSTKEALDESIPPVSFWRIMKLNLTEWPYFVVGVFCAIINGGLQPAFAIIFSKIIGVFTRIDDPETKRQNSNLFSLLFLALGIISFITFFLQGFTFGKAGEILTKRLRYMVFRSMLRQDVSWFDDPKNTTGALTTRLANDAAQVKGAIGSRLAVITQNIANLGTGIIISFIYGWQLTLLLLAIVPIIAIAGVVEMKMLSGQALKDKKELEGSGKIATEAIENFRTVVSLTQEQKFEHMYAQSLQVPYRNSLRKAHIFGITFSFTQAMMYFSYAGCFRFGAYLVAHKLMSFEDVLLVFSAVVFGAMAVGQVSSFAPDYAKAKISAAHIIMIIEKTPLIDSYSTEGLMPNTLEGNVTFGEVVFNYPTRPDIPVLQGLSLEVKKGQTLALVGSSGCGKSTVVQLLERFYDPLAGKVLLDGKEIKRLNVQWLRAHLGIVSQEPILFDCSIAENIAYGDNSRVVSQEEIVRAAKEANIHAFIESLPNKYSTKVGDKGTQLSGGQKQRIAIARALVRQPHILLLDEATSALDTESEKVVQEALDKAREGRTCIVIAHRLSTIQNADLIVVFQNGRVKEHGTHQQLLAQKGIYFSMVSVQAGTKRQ

SMILES | % dose in feces, Parent ([1]; BDC dog) [% dose] | % dose in bile, Parent ([1]; BDC dog) | renal excretion of parent drug [1] | Biliary excretion % of glucuronide [1] | Urinary excretion % of glucuronide [1] | % dose in feces, Parent ([1]; intact dog) | % dose in urine, Parent ([1]; intact dog) [% dose] | % of inhibition by ABT [2] [%] | Hepatic fm by UGT [2] | Peak area (+ABT) [3] | Peak area (‐ABT) [3] | PappB‐A/PappA‐B ([4]; MDR1‐MDCKII_control) | PappA‐B ([4]; MDR1‐MDCKII_control) | PappB‐A ([4]; MDR1‐MDCKII_control) | PappB‐A/PappA‐B ([4]; MDR1‐MDCKII_inhibitor) | PappA‐B [4, 5] | PappB‐A [4, 5] | P‐gp substrate [4] | Pgp substrate [4] | MDCK permeability (passive membrane permeability) [4] | further results
Cc1ccc([C@@H]2O[C@H](CO)[C@@H](O)[C@H](O)[C@H]2O)cc1Cc1ccc(-c2ccc(F)cc2)s1 [Canagliflozin] | 3.3 ± 0.7 | 4.66 ± 1.4 % dose | < 1 % of dose | Low (Low 0%‐30%) | Low (Low 0%‐30%) | 2.25 ± 1.3 % dose | 0.27 ± 0.15 | 20.1 ± 5.1 | High (high 70%‐100% in hepatocytes) | 8448 | 7808 | 22 | 4.0 ± 1.8 10^–6cm/s | 89.2 ± 8.2 10^–6cm/s | 1.3 | 10.8 ± 1.4 10^–6cm/s | 14.1 ± 0.1 10^–6cm/s | yes | S | Moderate | % dose in urine, Parent ([1]; BDC dog, ND = below quantitative limit 1 ng/mL): 0.05 ± 0.08 % dose; % dose in bile, Parent ([1]; BDC dog, listed as canagliflozin): 4.66 % dose; P‐gp substrate ([4]; listed as canagliflozin): P‐gp substrate; MDCK permeability (passive membrane permeability) ([4]; listed as canagliflozin): moderate; Net efflux ratio [4]: 17.1; Net efflux ratio ([4]; listed as canagliflozin): > 3
C[C@H]1c2cccc(CC(C)(C)O)c2C[C@H](CO)N1C(=O)Cc1c(Cl)cccc1Cl [DPTQ, 2‐(2,6‐dichlorophenyl)‐1‐((1S,3R)‐5‐(2‐hydroxy‐2‐methylpropyl)‐3‐(hydroxymethyl)‐1‐methyl‐3,4‐dihydroisoquinolin‐2(1H)‐yl)ethan‐1‐one] | 2.48 ± 4.8 | 8.91 % dose and 8.91 ± 8.9 % dose | < 1 % of dose | Moderate (moderate 30%‐70%) | Low (Low 0%‐30%) | 13.5 ± 5.8 ^a % dose | 0.64 ± 1.1 | 7.8 ± 9.6 | High (high 70%‐100% in hepatocytes) | 244 | 33 | 1.5 | 43.0 ± 4.5 10^–6cm/s | 62.6 ± 2.6 10^–6cm/s | 1.1 | 48.9 ± 5.9 10^–6cm/s | 53.5 ± 0.4 10^–6cm/s | not a P‐gp substrate and no | NS | high and High | –

— PMC6609541, “Enterohepatic circulation of glucuronide metabolites of drugs in dog” (Pharmacology Research & Perspectives, 2019)
